Reference: US8722634B2, “Use of compounds extracted from Momordica charantia L. in the manufacture of medicaments for prevention and treatment of diabetes and obesity” (Shanghai Institute of Materia Medica, Chinese Academy of …, priority 2008, dated 2014)

Legend:
[1] = test system: glucose transporter 4 (GLUT4); experiment: translocation of glucose transporter 4 (GLUT4) to the cell membrane in L6 myotubes; format: cell-based; settings: 10 μM, 2 hours
Experimental: Effects of isolated compounds on the translocation of glucose transporter 4 (GLUT4) from cytosol to the cell membrane (FIG. 2)
After L6 cells were differentiated to myotube completely, they were treated for 2 hours with various test compounds, namely trihydroxycucurbita-5,23(E)-dien-19-al, 22(S),23(R),24(R),25-tetrahydroxycucurbita-5-ene, momordicoside A, momordicoside B (final concentration 10 μM, each) or 100 nM insulin (as positive control). The data were expressed as mean±standard error (X±SE) (n=3-4). The significance was shown as ***p<0.001 compared with solvent control groups.

[2] = test system: adenosine monophosphate-activated protein kinase (AMPK); experiment: AMPK activation (pACC, pAMPK) in 3T3-L1 adipose cells; format: cell-based; settings: for activation of the AMPK signaling pathway (pACC, pAMPK): 10 μM, 60 minutes
Experimental: Testing the activities of trihydroxycucurbita-5,23(E)-diene-19-aldehyde and 22(S), 23(R),24(R),25-tetrahydroxy cucurbita-5-ene on adenosine monophosphate-activated protein kinase (AMPK) (FIG. 3)
3T3-L1 adipose cells was incubated for 60 minutes in a medium containing 10 μM compounds, or in a medium containing 2 mM 5-amino4-imidazolecarboxamide nucleotide (AIC, positive control) or DMSO as a solvent control, followed by being treated with 100 nM insulin for 2 minutes or 25 minutes. Then the proteins pACC and pAMPK in cell lysate were determined with corresponding antibodies. The total amount of protein 14-3-3 was used as the quality control for sample loading.
(§1) According the processes in experimental examples 2 and 3, 22(S),23(R),24(R),25-tetrahydroxycucurbita-5-ene was tested at different concentrations (10^−10, 10^−7, 10^−6, 10^−5 M).

[3] = test system: glucose transporter 4 (GLUT4); experiment: GLUT4 translocation in 3T3-L1 adipose cells; format: cell-based
Experimental: Dose-dependent effect of 22(S),23(R),24(R),25-tetrahydroxycucurbita-5-ene on GLUT4 translocation and the phosphorylation of AMPK in 3T3-L1 adipose cells (FIG. 4)
as §1
A. 10 μM 22(S),23(R),24(R),25-tetrahydroxycucurbita-5-ene or 100 nM insulin (positive control) was added in the differentiated 3T3-L1 adipose cells using DMSO (final concentration of DMSO: 0.2%) as a solvent with or without wortmanin (an inhibitor of monophosphoinositide 3-kinase), and the activity on GLUT4 translocation was determined as described in experimental example 2. The data were expressed in mean±standard error (X±SE). The significances were shown as *p<0.05 and **p<0.01 compared with the solvent control groups.

protein kinase B (Akt) [4] = experiment: phosphorylation of protein kinase B [Akt (S473)] in 3T3-L1 adipose cells; format: cell-based; settings: 10 μM, 30 minutes
Experimental: (§2) B. 3T3-L1 adipose cells and L6 muscle cells were incubated for 30 minutes in a medium containing 10 μM trihydroxycucurbita-5,23(E)-dien-19-al or 22(S),23(R),24(R),25-tetrahydroxycucurbita-5-ene, or a medium containing 100 nM insulin (positive control) or DMSO as a solvent control. The phosphorylation of protein kinase B [Akt (S473)] and the total protein kinase B (14-3-3) were determined with corresponding antibodies. The significances are shown as *p<0.05 and **p<0.01 compared with the solvent control groups.

protein kinase B (Akt) [5] = experiment: phosphorylation of protein kinase B [Akt (S473)] in L6 muscle cells; format: cell-based; settings: 10 μM, 30 minutes
Experimental: as §2

L6 muscle cells = experiment: glucose uptake in L6 muscle cells (2-[3H]-deoxy-D-glucose); format: cell-based; settings: 10 μM, 2 hours, p<0.05 vs control
Experimental: Testing the effect of momordicoside A on the glucose uptake in L6 muscle cells (FIG. 1)
After L6 cells were differentiated to myotube completely, they were incubated in serum-free DMEM containing 0.5% BSA for 16 hours. […] After that, they were washed with 1×PBS preheated at 37° C. twice, and 0.5% BSA Krebs buffer (NaCl 140 mM, KCl 5 mM, MgSO4 2.5 mM, CaCl2 1 mM, HEPES 20 mM, pH7.4) without or with insulin (final concentration 100 nM), followed by incubation at 37° C. for 40 minutes. A 2-[1,2-3H(N)]-deoxy-D-glucose solution (final concentration 0.5 μCi/ml) was added therein and incubated for 10 minutes at 37° C. Then the reaction was terminated by washing three times with ice-cold 1×PBS and 0.15 ml of 0.1% Triton was added therein for the lysis of the cells the counting in a liquid-scintillation counter. After the CPM value was corrected with the protein amount, the glucose uptake amount of L6 cells was calculated.
The data are shown in mean±standard error (X±SE) (n=3). The significance was shown as *p<0.05 compared with control groups under corresponding conditions.

[6] = test system: alloxan-induced diabetic mice; settings: 400 mg/kg, effect reported was very mild; cited from earlier work
[7] = tested at 10^−10, 10^−7, 10^−6, 10^−5 M

Row | Compound | translocation of glucose transporter 4 (GLUT4) to the cell membrane [1] | activation of the AMPK signaling pathway (pACC, pAMPK) [2] | concentration at which the maximal effect on phosphorylation of AMPK was reached [2, 7] | effect of wortmanin (PI3-kinase inhibitor) on the compound's activity on GLUT4 translocation ([3]; 10 μM, with or without wortmanin) | concentration at which the maximal effect on GLUT4 translocation was reached [3, 7] | phosphorylation of protein kinase B [Akt (S473)] (protein kinase B (Akt) [4]) | phosphorylation of protein kinase B [Akt (S473)] (protein kinase B (Akt) [5]) | glucose uptake in L6 cells under the stimulus of insulin (L6 muscle cells; 100 nM insulin) | glucose uptake in L6 cells at base level (L6 muscle cells; without insulin) | hypoglycemic effect [6]
1 | C[C@H]([C@H](O)[C@@H](O)[C@@H](O)C(C)(C)O)[C@H]1CC[C@@]2(C)C3CC=C4C(CC[C@H](O)C4(C)C)[C@]3(C)CC[C@]12C (stereo partly drawn) [22(S),23(R),24(R),25-tetrahydroxycucurbita-5-ene] | capable of promoting the translocation | capable of activating the AMPK signaling pathway significantly | 10^−6 M | did not affect the activity | 10^−6 M | not able to increase the phosphorylation of protein kinase B | not able to increase the phosphorylation of protein kinase B |  |  | 
2 | momordicoside A |  |  |  |  |  |  |  | increased significantly | increased significantly | 
3 | CC(CC=CC(C)(C)O)C1CCC2(C)C3C=CC45OCC3(CCC12C)C4CCC(O)C5(C)C (stereo not drawn) [5β, 19-epoxy-3β,25-dihydroxycucurbita-6,23(E)-diene] |  |  |  |  |  |  |  |  |  | showed hypoglycemic effect
4 | C[C@H](C/C=C/C(C)(C)O)[C@H]1CC[C@@]2(C)C3[C@@H](O)C=C4C(CC[C@H](O)C4(C)C)[C@]3(C=O)CC[C@]12C (stereo partly drawn) [trihydroxycucurbita-5,23(E)-dien-19-al] | capable of promoting the translocation | capable of activating the AMPK signaling pathway significantly |  |  |  | not able to increase the phosphorylation of protein kinase B | not able to increase the phosphorylation of protein kinase B |  |  | showed hypoglycemic effect
